Where a name gives a salt, the structure may show the parent alone.
Columns and labels:
(H^+, K^+)ATPase = target: T1, (H^+, K^+)ATPase (Sus scrofa, UniProt P19156); assay: Inhibition of (H^+, K^+)ATPase activities; type: biochemical; settings: pig gastric mucosa ATPase; pH 7.4; 2 mM MgCl2; 10 mM KCl; 37° C; read-out: (H^+,K^+)ATPase IC50 (Concentration of 50% inhibition)
T1 construct: ATPase is prepared from the pig gastric mucosa; from tissue; host or cells: pig gastric mucosa
Description: Inhibition of (H^+, K^+)ATPase activities. Inhibition of (H^+, K^+)ATPase activities is determined by the method of F. Fellenius et al., [Nature 290, 159-61, (1981)]. (H^+, K^30 )ATPase is prepared from the pig gastric mucosa and the test compound is incubated with 2 mM of […], 40 mM of tris-buffer (pH 7.4), 2 mM of MgCl2 and 10 mM of KCl at 37° C. Inorganic phosphate occurring by stimulation of ATPase is determined.

[1] = system: histamine-stimulated acid secretion; assay: Inhibitory activities of gastric-acid secretion in the acute fistula rat; type: in vivo; settings: 50 mg/kg oral, histamine.2HCl 10 mg/kg s.c. 4 hours after compound, Male Wistar rats, read-out: Total acid inhibition (inhibitory percent of compounds on histamine-stimulated acid secretion)
Description: Inhibitory activities of gastric-acid secretion in the acute fistula rat.
Determination of gastric-acid secretion is performed by the method of Y. Goto et al.(Expenentia 32, 946, (1976)). Male Wistar rats are anesthetized with urethane (1.2 g/kg, i.p.) 2 hours after the oral administration of compounds. A dual polyethylene cannula is introduced into the gastric lumen after ligation of the pylorus and the esophagus. The stomach is rinsed with 5 ml of saline through the gastric cannula at 15 min interval. The acid output during 15 minutes period is titrated with 0.01N NaOH. Histamine.2HCl (10 mg/kg, s.c.) is administered as a secretory agent 4 hours after the administration of compounds.

T1 sequence (P19156 2-1034 limits assumed): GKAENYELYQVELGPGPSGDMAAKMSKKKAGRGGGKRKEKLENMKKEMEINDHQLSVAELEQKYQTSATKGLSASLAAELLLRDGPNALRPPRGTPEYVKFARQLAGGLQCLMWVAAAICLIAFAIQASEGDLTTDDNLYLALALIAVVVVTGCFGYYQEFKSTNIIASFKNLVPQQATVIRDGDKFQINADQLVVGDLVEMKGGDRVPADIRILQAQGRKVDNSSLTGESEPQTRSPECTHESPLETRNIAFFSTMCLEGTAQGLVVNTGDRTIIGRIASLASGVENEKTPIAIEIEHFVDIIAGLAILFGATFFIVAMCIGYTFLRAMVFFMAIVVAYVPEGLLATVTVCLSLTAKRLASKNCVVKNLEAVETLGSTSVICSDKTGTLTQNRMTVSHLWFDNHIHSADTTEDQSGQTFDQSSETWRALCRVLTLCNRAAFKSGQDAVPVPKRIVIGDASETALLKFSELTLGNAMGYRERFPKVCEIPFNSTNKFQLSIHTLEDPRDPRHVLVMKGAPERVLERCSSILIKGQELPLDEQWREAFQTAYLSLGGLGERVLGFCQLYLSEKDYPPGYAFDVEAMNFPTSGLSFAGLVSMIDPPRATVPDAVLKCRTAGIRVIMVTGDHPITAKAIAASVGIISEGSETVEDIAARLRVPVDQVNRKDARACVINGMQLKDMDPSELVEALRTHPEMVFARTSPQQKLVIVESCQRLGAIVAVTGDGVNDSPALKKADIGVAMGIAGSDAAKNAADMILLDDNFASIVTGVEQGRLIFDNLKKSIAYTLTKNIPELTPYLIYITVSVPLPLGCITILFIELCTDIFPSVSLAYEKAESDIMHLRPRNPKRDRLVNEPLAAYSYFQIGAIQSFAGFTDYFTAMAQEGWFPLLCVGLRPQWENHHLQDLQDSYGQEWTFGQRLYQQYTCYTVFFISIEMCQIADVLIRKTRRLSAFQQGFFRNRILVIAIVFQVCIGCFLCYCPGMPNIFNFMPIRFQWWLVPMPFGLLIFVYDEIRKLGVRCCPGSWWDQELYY
T1 sequence (P18434 whole entry partner): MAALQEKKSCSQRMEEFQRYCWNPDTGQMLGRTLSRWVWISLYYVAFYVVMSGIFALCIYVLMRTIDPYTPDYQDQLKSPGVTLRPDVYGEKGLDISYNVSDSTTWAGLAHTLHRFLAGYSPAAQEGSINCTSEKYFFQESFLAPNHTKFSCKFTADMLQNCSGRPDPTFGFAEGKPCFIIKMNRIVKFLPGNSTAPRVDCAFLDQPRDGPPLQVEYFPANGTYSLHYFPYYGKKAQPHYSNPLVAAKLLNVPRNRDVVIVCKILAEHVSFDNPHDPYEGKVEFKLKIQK

Row | SMILES | IC50 ((H^+, K^+)ATPase) | inhibition in vivo at 50 mg/kg [1]
1 | C=CCSc1c2ccccn2c2nc3c(n12)CCCCC3 [Compound 16, 13-(2-Propenyl)thio-pyrido[1',2':3,4]imidazo[1,2-a]-7,8,9,10,11pentahydro-cycloheptimidazole] | 16.5 µM | 
2 | C#CCSc1c2ccccn2c2nc3c(n12)CCCCC3 [Compound 18] | 3.06 µM | 
3 | CC#CCSc1c2ccccn2c2nc3c(n12)CCCCC3 [Compound 19, 13-(2-Butynyl)thio-pyrido[1',2':3,4]imidazo[1,2-a]-7,8,9,10,11pentahydro-cycloheptimidazole] | 47.3 µM | 
4 | CCC(=O)Sc1c2ccccn2c2nc3c(n12)CCCCC3 [Compound 21, 13-(Propionyl)thio-pyrido[1',2':3,4]imidazo[1,2-a]-7,8,9,10,11pentahydro-cycloheptimidazole fumarate] | 18.1 µM | 64.9%
5 | c1ccn2c(c1)c(SCCN1CCCCC1)n1c3c(nc12)CCCCC3 [Compound 23, 13-[2-(1-Piperidino)ethyl]thio-pyrido[1',2':3,4]imidazo[1,2-a]7,8,9,10,11-pentahydro-cycloheptimidazole] | 91.3 µM | 
6 | CC(=O)Sc1c(-c2ccccc2)nc2nc3cccccc3n12 [Compound 34, 3-(Acetyl)thio-2-phenyl-cyclohept[d]imidazo[1,2-a]imidazole] | 2.47 µM | 76.6%
7 | CCC(=O)Sc1c(-c2ccccc2)nc2nc3cccccc3n12 [Compound 35, 3-(Propionyl)thio-2-phenyl-cyclohept[d]imidazo[1,2-a]imidazole] | 10.5 µM | 54%
8 | C=CC(=O)Sc1c(-c2ccccc2)nc2nc3cccccc3n12 [Compound 37, 3-(Acryloyl)thio-2-phenyl-cyclohept[d]imidazo[1,2-a]imidazole] | 2.2 µM | 51.5%
9 | C/C=C/C(=O)Sc1c(-c2ccccc2)nc2nc3cccccc3n12 [Compound 38, 3-(Crotonoyl)thio-2-phenyl-cyclohept[d]imidazo[1,2-a]imidazole] | 13.3 µM | 63.4%
10 | COCC(=O)Sc1c(-c2ccccc2)nc2nc3cccccc3n12 [Compound 43, 3-(Methoxyacetyl)thio-2-phenyl-cyclohept[d]imidazo[1,2-a]imidazole] | 2.23 µM | 53.8%
11 | COCCC(=O)Sc1c(-c2ccccc2)nc2nc3cccccc3n12 [Compound 44, 3-(3-Methoxypropionyl)thio-2-phenyl-cyclohept[d]imidazo[1,2-a]imidazole] | 8.75 µM | 80.7%
12 | O=C(Sc1c(-c2ccccc2)nc2nc3cccccc3n12)c1ccccn1 [Compound 48, 3-(Picolinoyl)thio-2-phenyl-cyclohept[d]imidazo[1,2-a]imidazole] | 2.72 µM | 
13 | CCCCC(=O)Sc1c(-c2ccccc2)nc2nc3ccc(C(C)C)ccc3n12 [Compound 53, 3-(valeryl)thio-2-phenyl-7-isopropyl-cyclohept[d]imidazo[1,2-a]imidazole] | 1.95 µM | 73.7%
14 | CC(=O)Sc1c(-c2ccc(F)cc2)nc2nc3cccccc3n12 [Compound 55, 3-(acetyl)thio-(4-fluorophenyl)-cyclohept[d]imidazo[1,2-a]imidazole] | 1.4 µM | 
15 | CC(=O)Sc1c(-c2ccc(Cl)cc2)nc2nc3cccccc3n12 [Compound 57, 3-(acetyl)thio-2-(4-chlorophenyl)-cyclohept[d]imidazo[1,2-a]imidazole] | 0.79 µM | 
16 | CC(=O)Sc1c(C)nc2nc3cccccc3n12 [Compound 65, 3-(Acetyl)thio-2-methyl-cyclohept[d]imidazo[1,2-a]imidazole] |  | 68.8%
17 | CCC(=O)Sc1c(C)nc2nc3cccccc3n12 [Compound 66, 3-(Propionyl)thio-2-methyl-cyclohept[d]imidazo[1,2-a]imidazole] | 17.5 µM | 63.7%
18 | Cc1nc2nc3cccccc3n2c1SC(=O)C(C)(C)C [Compound 68, 3-(Pivaloyl)thio-2-methyl-cyclohept[d]imidazo[1,2-a]imidazole] |  | 73.9%
19 | C/C=C/C(=O)Sc1c(C)nc2nc3cccccc3n12 [Compound 69, 3-(Crotonoyl)thio-2-methyl-cyclohept[d]imidazo[1,2-a]imidazole] | 22.7 µM | 83.5%
20 | COCC(=O)Sc1c(C)nc2nc3cccccc3n12 [Compound 72, 3-(Methoxyacetyl)thio-2-methyl-cyclohept[d]imidazo[1,2-a]imidazole] | 5.9 µM | 
21 | COCCC(=O)Sc1c(C)nc2nc3cccccc3n12 [Compound 75, 3-(3-MethoxyPropionyl)thio-2-methyl-cyclohept[d]imidazo[1,2-a]imidazole] | 55.1 µM | 
22 | Cc1nc2nc3cccccc3n2c1SC(=O)c1ccccn1 [Compound 76, 3-(Picolinoyl)thio-2-methyl-cyclohept[d]imidazo[1,2-a]imidazole] |  | 83.7%
23 | Cc1nc2nc3cccccc3n2c1SC(=O)c1ccccc1 [Compound 77, 3-(Benzoyl)thio-2-methyl-cyclohept[d]imidazo[1,2-a]imidazole] |  | 82.5%
24 | Cc1nc2nc3cccccc3n2c1SC(=O)C(C)C [Compound 81, 3-(isobutyryl)thio-2-methyl-cyclohept[d]imidazo[1,2-a]imidazole] | 2.79 µM | 79.8%
25 | CCCCC(=O)Sc1c(C)nc2nc3cccccc3n12 [Compound 82, 3-(valeryl)thio-2-methyl-cyclohept [d]imidazo[1,2-a]imidazole] |  | 81.2%
26 | CCC(=O)Sc1c(-c2ccccc2)nc2n(C)c3ccccc3n12 [Compound 87, 3-(Propionyl)thio-2-phenyl-9-methyl-9H-imidazo[1,2-a]benzimidazole] | 25.8 µM | 53.8%
27 | Cn1ccn2c(SC(=O)COc3ccccc3)c(-c3ccccc3)nc12 [Compound 92, 5-(Phenoxyacetyl)thio-6-phenyl-1-methyl-1H-imidazo[1,2-a]imidazole] | 16 µM | 65.6%

From patent publication US5008282A, “Cyclic guanidine derivatives, anti-ulceratives and methods of manufacturing the same” (Kotobuki Seiyaku Co. Ltd., priority 1988, dated 1991)
